Laboratory results as given in ChEMBL document CHEMBL4340531, “Synthesis and biological evaluation of solithromycin analogs against multidrug resistant pathogens” (Bioorg Med Chem Lett, 2019).
≈ marks a conversion by molar mass, not a printed value.

Legend:
[1] = tested on: Escherichia coli; assay: Antibacterial activity against resistant Escherichia coli DK incubated for 20 hrs by broth dilution method; assay type: functional
[2] = tested on: Staphylococcus aureus; assay: Antibacterial activity against wild type Staphylococcus aureus ATCC 29213 incubated for 18 hrs by broth dilution method; assay type: functional; details: ATCC 29213, 18 h
[3] = tested on: Acinetobacter baumannii; assay: Potency index, ratio of solithromycin MIC to compound MIC for multidrug-resistant Acinetobacter baumannii ATCC 19606; assay type: functional, ATCC 19606 = CIP 70.34 = JCM 6841
[4] = tested on: Escherichia coli; assay: Antibacterial activity against resistant Escherichia coli DK3535 incubated for 20 hrs by broth dilution method; assay type: functional; details: DK3535, 20 h
[5] = tested on: Acinetobacter baumannii; assay: Antibacterial activity against multi drug resistant Acinetobacter baumannii ATCC 19606 incubated for 24 hrs by broth dilution method; assay type: functional; details: ATCC 19606 = CIP 70.34 = JCM 6841, 24 h
[6] = tested on: Escherichia coli; assay: Antibacterial activity against resistant Escherichia coli DK2058G incubated for 20 hrs by broth dilution method; assay type: functional
[7] = tested on: Escherichia coli; assay: Antibacterial activity against resistant Escherichia coli SQ171 incubated for 20 hrs by broth dilution method; assay type: functional; details: SQ171, 20 h
[8] = tested on: Staphylococcus aureus; assay: Antibacterial activity against resistant Staphylococcus aureus UCN18 incubated for 18 hrs by broth dilution method; assay type: functional; details: UCN18, 18 h
[9] = Cytotoxicity against African green monkey Vero cells assessed as reduction in cell viability after 72 hrs by MTS/PMS assay; assay type: cell-based; details: chlorocebus sabaeus
[10] = tested on: Escherichia coli; assay: Antibacterial activity against resistant Escherichia coli SQ1712058G incubated for 20 hrs by broth dilution method; assay type: functional
[11] = tested on: Enterococcus faecium; assay: Potency index, ratio of solithromycin MIC to compound MIC for multi drug resistant Enterococcus faecium NCTC 7171; assay type: functional
[12] = tested on: Staphylococcus aureus; assay: Antibacterial activity against resistant Staphylococcus aureus UCN14 incubated for 18 hrs by broth dilution method; assay type: functional; details: UCN14, 18 h
[13] = Selectivity index, ratio of CC50 for African green monkey Vero cells to MIC for multi drug resistant Enterococcus faecium NCTC 7171; assay type: toxicity; details: read-out: Selectivity Index
[14] = tested on: Staphylococcus aureus; assay: Antibacterial activity against resistant Staphylococcus aureus UCN17 incubated for 18 hrs by broth dilution method; assay type: functional; details: UCN17, 18 h
[15] = tested on: Enterococcus faecium; assay: Antibacterial activity against multi drug resistant Enterococcus faecium NCTC 7171 incubated for 24 hrs by broth dilution method; assay type: functional; details: NCTC 7171, 24 h
[16] = tested on: Escherichia coli; assay: Potency index, ratio of solithromycin MIC to compound MIC for resistant Escherichia coli SQ171; assay type: functional
[17] = tested on: Escherichia coli; assay: Potency index, ratio of solithromycin MIC to compound MIC for resistant Escherichia coli DK3535; assay type: functional
[18] = tested on: Escherichia coli; assay: Potency index, ratio of solithromycin MIC to compound MIC for resistant Escherichia coli DK; assay type: functional
[19] = tested on: Escherichia coli; assay: Potency index, ratio of solithromycin MIC to compound MIC for resistant Escherichia coli SQ1712058G; assay type: functional
[20] = tested on: Staphylococcus aureus; assay: Potency index, ratio of solithromycin MIC to compound MIC for wild type Staphylococcus aureus ATCC 29213; assay type: functional

| Compound | MIC [1] | MIC [2] | Ratio [3] | MIC [4] | MIC [5] | MIC [6] | MIC [7] | MIC [8] | CC50 at 72 h [9] | MIC [10] | Ratio [11] | MIC [12] | selectivity ratio [13] | MIC [14] | MIC [15] | Ratio [16] | Ratio [17] | Ratio [18] | Ratio [19] | Ratio [20] |
| --- | --- | --- | --- | --- | --- | --- | --- | --- | --- | --- | --- | --- | --- | --- | --- | --- | --- | --- | --- | --- |
| CC[C@H]1OC(=O)[C@@](C)(F)C(=O)[C@H](C)[C@@H](O[C@@H]2O[C@H](C)C[C@H](N(C)C)[C@H]2O)[C@](C)(OC)C[C@@H](C)C(=O)[C@H](C)[C@H]2N(CCCCn3cc(-c4ccsc4)nn3)C(=O)O[C@]12C | 4 µg/mL (≈ 4.78 µM) | 0.25 µg/mL (≈ 0.299 µM) | 2 | 4 µg/mL (≈ 4.78 µM) | 12 µg/mL (≈ 14.4 µM) | 4 µg/mL (≈ 4.78 µM) | 8 µg/mL (≈ 9.57 µM) | 128 µg/mL (≈ 153 µM) | 25 µg/mL (≈ 29.9 µM) | > 64 µg/mL | 256 | 128 µg/mL (≈ 153 µM) | 270000 | 128 µg/mL (≈ 153 µM) | 0.094 ng/mL (≈ 0.000112 µM) |  |  |  |  |  |
| CC[C@H]1OC(=O)[C@@](C)(F)C(=O)[C@H](C)[C@@H](O[C@@H]2O[C@H](C)C[C@H](N(C)C)[C@H]2O)[C@](C)(OC)C[C@@H](C)C(=O)[C@H](C)[C@H]2N(CCCCn3cc(-c4ccc(N)cc4)nn3)C(=O)O[C@]12C | 1 µg/mL (≈ 1.18 µM) | ≤ 0.031 µg/mL |  | 1 µg/mL (≈ 1.18 µM) | 25 µg/mL (≈ 29.6 µM) | 4 µg/mL (≈ 4.73 µM) | 16 µg/mL (≈ 18.9 µM) | 16 µg/mL (≈ 18.9 µM) |  | > 32 µg/mL |  | 16 µg/mL (≈ 18.9 µM) |  | 8 µg/mL (≈ 9.47 µM) | 24 ng/mL (≈ 0.0284 µM) | 2 | 2 | 2 |  |  |
| CC[C@H]1OC(=O)[C@@](C)(F)C(=O)[C@H](C)[C@@H](O[C@@H]2O[C@H](C)C[C@H](N(C)C)[C@H]2O)[C@](C)(OC)C[C@@H](C)C(=O)[C@H](C)[C@H]2N(CCCCn3cc(-c4cc(O)cc([N+](=O)[O-])c4)nn3)C(=O)O[C@]12C | 0.5 µg/mL (≈ 0.561 µM) | ≤ 0.0625 µg/mL |  | 8 µg/mL (≈ 8.98 µM) | 25 µg/mL (≈ 28.1 µM) | 4 µg/mL (≈ 4.49 µM) | 32 µg/mL (≈ 35.9 µM) | 8 µg/mL (≈ 8.98 µM) | 12 µg/mL (≈ 13.5 µM) | > 32 µg/mL | 4096 | 16 µg/mL (≈ 18 µM) | 2e+06 | 4 µg/mL (≈ 4.49 µM) | 0.0059 ng/mL (≈ 6.62e-06 µM) |  |  | 4 |  |  |
| CC[C@H]1OC(=O)[C@@](C)(F)C(=O)[C@H](C)[C@@H](O[C@@H]2O[C@H](C)C[C@H](N(C)C)[C@H]2O)[C@](C)(OC)C[C@@H](C)C(=O)[C@H](C)[C@H]2N(CCCCn3cc(-c4cc(OC)cc([N+](=O)[O-])c4)nn3)C(=O)O[C@]12C | 4 µg/mL (≈ 4.42 µM) | ≤ 0.0625 µg/mL |  | 2 µg/mL (≈ 2.21 µM) | 50 µg/mL (≈ 55.2 µM) | 2 µg/mL (≈ 2.21 µM) | 16 µg/mL (≈ 17.7 µM) | 32 µg/mL (≈ 35.4 µM) |  | 8 µg/mL (≈ 8.84 µM) | 16 | 64 µg/mL (≈ 70.7 µM) |  | 32 µg/mL (≈ 35.4 µM) | 1.5 ng/mL (≈ 0.00166 µM) | 2 |  |  | 4 |  |
| CC[C@H]1OC(=O)[C@H](C)[C@@H](O[C@H]2C[C@@](C)(OC)[C@@H](O)[C@H](C)O2)[C@H](C)[C@@H](O[C@@H]2O[C@H](C)C[C@H](N(C)C)[C@H]2O)[C@](C)(O)C[C@@H](C)CN(C)[C@H](C)[C@@H](O)[C@]1(C)O [AZITHROMYCIN] |  |  |  |  |  |  |  |  |  |  |  |  |  |  | 25000 ng/mL (≈ 33.4 µM) |  |  |  |  |  |
| CC[C@H]1OC(=O)[C@@](C)(F)C(=O)[C@H](C)[C@@H](O[C@@H]2O[C@H](C)C[C@H](N(C)C)[C@H]2O)[C@](C)(OC)C[C@@H](C)C(=O)[C@H](C)[C@H]2N(CCCCn3cc(-c4cccs4)nn3)C(=O)O[C@]12C | 2 µg/mL (≈ 2.39 µM) | ≤ 0.0625 µg/mL | 4 | 1 µg/mL (≈ 1.2 µM) | 6.5 µg/mL (≈ 7.77 µM) | 1 µg/mL (≈ 1.2 µM) | 32 µg/mL (≈ 38.3 µM) | 8 µg/mL (≈ 9.57 µM) |  | > 64 µg/mL |  | 32 µg/mL (≈ 38.3 µM) |  | 8 µg/mL (≈ 9.57 µM) | 49 ng/mL (≈ 0.0586 µM) |  |  |  |  |  |
| CC[C@H]1OC(=O)[C@H](C)[C@@H](O[C@H]2C[C@@](C)(OC)[C@@H](O)[C@H](C)O2)[C@H](C)[C@@H](O[C@@H]2O[C@H](C)C[C@H](N(C)C)[C@H]2O)[C@](C)(O)C[C@@H](C)C(=O)[C@H](C)[C@@H](O)[C@]1(C)O [ERYTHROMYCIN] |  |  |  |  |  |  |  |  |  |  |  |  |  |  | 12000 ng/mL (≈ 16.4 µM) |  |  |  |  |  |
| CC[C@H]1OC(=O)[C@@](C)(F)C(=O)[C@H](C)[C@@H](O[C@@H]2O[C@H](C)C[C@H](N(C)C)[C@H]2O)[C@](C)(OC)C[C@@H](C)C(=O)[C@H](C)[C@H]2N(CCCCn3cc(COc4ccccc4)nn3)C(=O)O[C@]12C | 2 µg/mL (≈ 2.33 µM) | ≤ 0.0625 µg/mL |  | 4 µg/mL (≈ 4.65 µM) | 25 µg/mL (≈ 29.1 µM) | 4 µg/mL (≈ 4.65 µM) | > 32 µg/mL | 4 µg/mL (≈ 4.65 µM) |  | > 32 µg/mL | 2 | 64 µg/mL (≈ 74.4 µM) |  | 8 µg/mL (≈ 9.3 µM) | 12 ng/mL (≈ 0.014 µM) |  |  |  |  |  |
| CC[C@H]1OC(=O)[C@@](C)(F)C(=O)[C@H](C)[C@@H](O[C@@H]2O[C@H](C)C[C@H](N(C)C)[C@H]2O)[C@](C)(OC)C[C@@H](C)C(=O)[C@H](C)[C@H]2N(CCCCn3cc(-c4cnc(N)s4)nn3)C(=O)O[C@]12C | 2 µg/mL (≈ 2.35 µM) | 0.25 µg/mL (≈ 0.293 µM) |  | 1 µg/mL (≈ 1.17 µM) | > 50 µg/mL | 1 µg/mL (≈ 1.17 µM) | > 32 µg/mL | 64 µg/mL (≈ 75.1 µM) |  | > 32 µg/mL |  | 64 µg/mL (≈ 75.1 µM) |  | 64 µg/mL (≈ 75.1 µM) | 24 ng/mL (≈ 0.0282 µM) |  |  |  |  |  |
| CC[C@H]1OC(=O)[C@@](C)(F)C(=O)[C@H](C)[C@@H](O[C@@H]2O[C@H](C)C[C@H](N(C)C)[C@H]2O)[C@](C)(OC)C[C@@H](C)C(=O)[C@H](C)[C@H]2N(CCCCn3cc(-c4ccc(OC)cc4)nn3)C(=O)O[C@]12C | 2 µg/mL (≈ 2.33 µM) | ≤ 0.0625 µg/mL |  | 2 µg/mL (≈ 2.33 µM) | 25 µg/mL (≈ 29.1 µM) | 2 µg/mL (≈ 2.33 µM) | 64 µg/mL (≈ 74.4 µM) | 32 µg/mL (≈ 37.2 µM) |  | > 64 µg/mL | 16 | > 128 µg/mL |  | 32 µg/mL (≈ 37.2 µM) | 1.5 ng/mL (≈ 0.00174 µM) |  |  |  |  |  |
| CC[C@H]1OC(=O)[C@@](C)(F)C(=O)[C@H](C)[C@@H](O[C@@H]2O[C@H](C)C[C@H](N(C)C)[C@H]2O)[C@](C)(OC)C[C@@H](C)C(=O)[C@H](C)[C@H]2N(CCCCn3cc(-c4cccc(NC(C)=O)c4)nn3)C(=O)O[C@]12C | 4 µg/mL (≈ 4.51 µM) | 0.016 µg/mL (≈ 0.018 µM) |  | 4 µg/mL (≈ 4.51 µM) | 50 µg/mL (≈ 56.4 µM) | 8 µg/mL (≈ 9.02 µM) | 64 µg/mL (≈ 72.1 µM) | 64 µg/mL (≈ 72.1 µM) |  | > 64 µg/mL |  | > 128 µg/mL |  | 64 µg/mL (≈ 72.1 µM) | 24 ng/mL (≈ 0.0271 µM) |  |  |  |  | 4 - 8 |
| CC[C@H]1OC(=O)[C@@](C)(F)C(=O)[C@H](C)[C@@H](O[C@@H]2O[C@H](C)C[C@H](N(C)C)[C@H]2O)[C@](C)(OC)C[C@@H](C)C(=O)[C@H](C)[C@H]2N(CCCCn3cc(-c4cccc(N)c4)nn3)C(=O)O[C@]12C [SOLITHROMYCIN] | 2 µg/mL (≈ 2.37 µM) | 0.06 to 0.12 µg/mL (≈ 0.071 to 0.142 µM) |  | 2 µg/mL (≈ 2.37 µM) | 25 µg/mL (≈ 29.6 µM) | 4 µg/mL (≈ 4.73 µM) | > 32 µg/mL | 4 µg/mL (≈ 4.73 µM) |  | > 32 µg/mL |  | 8 µg/mL (≈ 9.47 µM) |  | 4 µg/mL (≈ 4.73 µM) | 24 ng/mL (≈ 0.0284 µM) |  |  |  |  |  |
